From patent US20140051679A1, “KINASE INHIBITORS AND METHOD OF TREATING CANCER WITH SAME” (UNIVERISTY HEALTH NETWORKS, priority 2011, published 2014)

Assays:
Aurora B = target: T1, Aurora B (Homo sapiens, UniProt Q96GD4); assay: Aurora B inhibition assay (Z-Lyte); type: biochemical; settings: 28 nM Aurora B, 128 μM ATP; read-out: IC50 Ranges Aurora B
T1 construct: purchased Invitrogen PV3970
Experimental: Aurora B inhibition was determined using the Z-Lyte assay kit from Invitrogen. The assay was performed using the recommended manufacturer's instructions with 128 μM ATP and 28 nM Aurora B (Invitrogen cat #PV3970). The % inhibition values were determined according to the manufacturer's directions and IC50 values were obtained using a non-linear 4 point logistic curve fit (XLfit4, IDBS)

[1] = test system: HCT116 colon cancer cells; assay: Cell growth inhibition, Sulforhodamine B assay, HCT116; type: cell-based; settings: Homo sapiens, HCT-116, 120 h, 5 days culture, SRB assay, read-out: Cell Line GI50 Range HCT116
[2] = test system: OVCAR-3 ovarian cancer cells; assay: Cell growth inhibition, Sulforhodamine B assay, OVCAR-3; type: cell-based; settings: Homo sapiens, 120 h, 5 days culture, SRB assay, read-out: Cell Line GI50 Range OVCAR-3
human PLK4 = target: T2, human PLK4 (Homo sapiens, UniProt O00444); assay: PLK4 inhibition assay (indirect ELISA); type: biochemical; settings: GST-PLK4 4 nM, 15 μM ATP; read-out: IC50 Ranges PLK4
T2 construct: amino terminal GST fusion of residues 1-391 of human PLK4; made in house; host or cells: E. coli
T2 sequence (O00444 1-391): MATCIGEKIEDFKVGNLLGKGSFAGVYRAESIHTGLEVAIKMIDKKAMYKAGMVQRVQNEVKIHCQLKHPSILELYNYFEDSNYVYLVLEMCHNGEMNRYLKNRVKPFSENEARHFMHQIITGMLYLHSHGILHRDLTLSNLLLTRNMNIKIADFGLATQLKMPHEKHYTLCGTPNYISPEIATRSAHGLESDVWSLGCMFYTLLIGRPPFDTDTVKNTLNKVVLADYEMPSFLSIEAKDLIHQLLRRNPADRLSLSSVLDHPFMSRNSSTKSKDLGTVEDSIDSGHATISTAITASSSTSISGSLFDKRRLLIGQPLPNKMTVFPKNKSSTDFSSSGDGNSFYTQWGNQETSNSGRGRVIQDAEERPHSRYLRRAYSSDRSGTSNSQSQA
Procedure, shortened: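 Compounds were tested either at a single 10 μM dose or across 10-point titrations (typically 0.5 to 0.001 μM), preincubated 15 min with 4 nM GST-PLK4 (human 1-391, dephosphorylated) before 15 μM ATP was added. MBP substrate phosphorylation over 30 min, pH 7.5 HEPES/MgCl2 buffer, read by HRP/TMB ELISA (450 nm). % inhibition vs. high-activity control; IC50 by logistic fit.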

human TTK = target: T3, human TTK (Homo sapiens, UniProt P33981); assay: TTK inhibition assay (indirect ELISA); type: biochemical; settings: GST-TTK 0.68 nM, 16 μM ATP; read-out: IC50 Ranges TTK
T3 construct: amino terminal GST fusion of full length human TTK; purchased Invitrogen
T3 sequence (P33981 1-857): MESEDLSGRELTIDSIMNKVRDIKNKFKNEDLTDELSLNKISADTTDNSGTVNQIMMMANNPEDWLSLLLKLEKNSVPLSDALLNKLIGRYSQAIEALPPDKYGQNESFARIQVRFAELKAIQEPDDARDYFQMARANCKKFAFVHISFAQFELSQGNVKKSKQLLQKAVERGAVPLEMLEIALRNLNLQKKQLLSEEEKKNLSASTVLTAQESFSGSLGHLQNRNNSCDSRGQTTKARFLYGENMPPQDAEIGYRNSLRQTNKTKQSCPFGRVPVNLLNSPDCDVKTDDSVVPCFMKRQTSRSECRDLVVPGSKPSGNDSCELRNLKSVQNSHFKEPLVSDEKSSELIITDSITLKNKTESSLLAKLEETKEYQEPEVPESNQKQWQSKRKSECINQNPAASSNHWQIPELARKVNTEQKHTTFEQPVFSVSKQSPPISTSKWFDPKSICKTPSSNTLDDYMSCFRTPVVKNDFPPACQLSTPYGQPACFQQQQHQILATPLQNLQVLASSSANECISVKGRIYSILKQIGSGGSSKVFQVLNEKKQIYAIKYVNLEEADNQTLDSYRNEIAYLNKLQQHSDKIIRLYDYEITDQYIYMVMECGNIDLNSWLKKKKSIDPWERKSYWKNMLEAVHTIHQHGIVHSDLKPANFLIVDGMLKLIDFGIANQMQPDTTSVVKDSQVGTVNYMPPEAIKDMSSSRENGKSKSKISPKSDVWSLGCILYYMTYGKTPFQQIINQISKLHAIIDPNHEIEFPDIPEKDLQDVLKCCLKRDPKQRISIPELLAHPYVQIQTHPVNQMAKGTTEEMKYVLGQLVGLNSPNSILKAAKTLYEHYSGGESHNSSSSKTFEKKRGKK
Experimental: Active TTK was purchased from Invitrogen as an amino terminal GST fusion of full length human TTK.
TTK activity was measured using an indirect ELISA detection system. GST-TTK (0.68 nM) was incubated in the presence of 16 μM ATP (Sigma cat#A7699), 50 mM Hepes pH 7.2, 1 mM EGTA, 10 mM MgCl2, and 0.1% Pluronic in a 96 well microtitre plate pre-coated with amino terminal 6 histidine, sumo tagged TTK (amino acid residues 1-275). The reaction was allowed to proceed for 30 minutes, followed by 5 washes of the plate with Wash Buffer (phosphate buffered saline supplemented with 0.2% Tween 20), and incubation for 30 minutes with a 1:3000 dilution of primary antibody (Cell Signaling cat#9381). The plate was washed 5 times with Wash Buffer, incubated for 30 minutes in the presence of secondary antibody coupled to horse radish peroxidase (BioRad cat#1721019, 1:3000 concentration), washed an additional 5 times with Wash Buffer, and incubated in the presence of TMB substrate (Sigma cat#T0440). The colourimetric reaction was allowed to continue for 5 minutes, followed by addition of stop solution (0.5 N sulphuric acid), and quantified by detection at 450 nm with either a monochromatic or filter based plate reader (Molecular Devices M5 or Beckman DTX880, respectively).
Compounds were pre-incubated in the presence of enzyme for 5 minutes prior to addition of ATP and the activity remaining quantified using the above described activity assay. The % Inhibition of a compound was determined using the following formula; % Inhibition=100×(1−(experimental value−background value)/(high activity control−background value)). The IC50 value was determined using a non-linear 4 point logistic curve fit (XLfit4, IDBS) with the formula; (A+(B/(1+((x/C)̂D)))), where A=background value, B=range, C=inflection point, D=curve fit parameter.

[3] = test system: MDA-MB-468 breast cancer cells; assay: Cell growth inhibition, Sulforhodamine B assay, MDA-MB-468; type: cell-based; settings: Homo sapiens, 120 h, 5 days culture, SRB assay, read-out: Cell Line GI50 Range MDA-MB-468
HT29 colon cancer cells = assay: Cell growth inhibition, Sulforhodamine B assay, HT29; type: cell-based; settings: Homo sapiens, HT-29, 120 h, 5 days culture, SRB assay, read-out: Cell Line GI50 Range HT29
[4] = test system: MDA-MB-231 breast cancer cells; assay: Cell growth inhibition, Sulforhodamine B assay, MDA-MB-231; type: cell-based; settings: Homo sapiens, 120 h, 5 days culture, SRB assay, read-out: Cell Line GI50 Range MDA-MB-231
Experimental: Breast cancer cells (MDA-MB-231, MDA-MB-468), colon cancer cells (HCT116, HT29) and ovarian cancer cells (PA-1, OVCAR-3) were seeded (1000 to 4000 in 80 μl per well depending on the cell growth rate) into 96 well plates 24 hours before compound overlay. Compounds were prepared as 10 mM stock solutions in 100% DMSO which were diluted with DMEM (Dulbecco's Modified Eagle's Medium) cell growth Medium (Invitrogen, Burlington, ON, Canada) containing 10% FBS (Fetal Bovine Serum) to concentrations ranging from 50 nM to 250 μM. Aliquots (20 μl) from each concentration were overlaid to 80 μl of the pre-seeded cells in the 96 well plates to make final concentrations of 10 nM to 50 μM. The cells were cultured for 5 days before the Sulforhodamine B assay (SRB) was performed to determine the compound's cell growth inhibition activity.
Sulforhodamine B (purchased from Sigma, Oakville, ON, Canada) is a water-soluble dye that binds to the basic amino acids of the cellular proteins. Thus, colorimetric measurement of the bound dye provides an estimate of the total protein mass that is related to the cell number. the cells are fixed in situ by gently aspirating off the culture media and adding 50 μl ice cold 10% Trichloroacetic Acid (TCA) per well and incubate at 4° C. for 30-60 min, The plates are washed with water five times and allowed to air dry for 5 min. Addition of 50 μl 0.4% (w/v) SRB solution in 1% (v/v) acetic acid to each well and incubatation for 30 min at RT completes the staining reaction. Following staining, plates are washed four times with 1% acetic acid to remove unbound dye and then allowed to air dry for 5 min. The stain is solubilized with 100 μl of 10 mM Tris pH 10.5 per well. Absorbance is read at 570 nm.
The percentage (%) of relative growth inhibition was calculated by comparing to DMSO treated only cells (100%). […] The GI50 was calculated using GraphPad PRISM software (GraphPad Software, Inc., San Diego, Calif., USA).

T1 sequence (Q96GD4 whole entry): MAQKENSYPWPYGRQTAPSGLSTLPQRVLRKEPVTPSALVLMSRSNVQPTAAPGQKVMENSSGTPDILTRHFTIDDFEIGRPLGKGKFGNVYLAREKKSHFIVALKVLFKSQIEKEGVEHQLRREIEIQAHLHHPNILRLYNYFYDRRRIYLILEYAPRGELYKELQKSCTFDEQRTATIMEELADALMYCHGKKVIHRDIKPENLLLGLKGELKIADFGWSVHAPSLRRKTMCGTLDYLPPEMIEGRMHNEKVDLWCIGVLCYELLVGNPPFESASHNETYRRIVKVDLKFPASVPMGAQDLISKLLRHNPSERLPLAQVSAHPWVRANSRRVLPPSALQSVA

| Structure (SMILES) | IC50 (Aurora B) [µM] | GI50 [1] [µM] | GI50 [2] [µM] | IC50 (human PLK4) [µM] | IC50 (human TTK) [µM] | GI50 [3] [µM] | GI50 (HT29 colon cancer cells) [µM] | GI50 [4] [µM] |
| --- | --- | --- | --- | --- | --- | --- | --- | --- |
| CN1CCC(Oc2ccc(-c3n[nH]c4ccc(NC(=O)Nc5c(Cl)cccc5Cl)cc34)cc2)CC1 [Example A76, 1-(2,6-dichlorophenyl)-3-(3-(4-((1-methylpiperidin-4-yl)oxy)phenyl)-1H-indazol-5-yl)urea] | ≤ 5 | ≤ 5 | 5 to 20 | ≤ 5 | ≤ 5 | ≤ 5 | ≤ 5 | – |
| O=C(Nc1ccc2[nH]nc(-c3ccc(N4CCOCC4)c(F)c3)c2c1)C(c1ccsc1)N1CCCC1 (stereo not drawn) [Example A60, N-(3-(3-fluoro-4-morpholinophenyl)-1H-indazol-5-yl)-2-(pyrrolidin-1-yl)-2-(thiophen-3-yl)acetamide] | – | ≤ 5 | 5 to 20 | ≤ 5 | ≤ 5 | ≤ 5 | ≤ 5 | ≤ 5 |
| CN1CCC(Oc2ccc(-c3n[nH]c4ccc(C(=O)N[C@@H]5CCCc6ccccc65)cc34)cc2)CC1 [Example A26, (R)-3-(4-((1-methylpiperidin-4-yl)oxy)phenyl)-N-(1,2,3,4-tetrahydronaphthalen-1-yl)-1H-indazole-5-carboxamide] | – | ≤ 5 | ≤ 5 | ≤ 5 | ≤ 5 | ≤ 5 | ≤ 5 | ≤ 5 |
| Cc1cc(-c2n[nH]c3ccc(NC(=O)C(c4ccsc4)N4CCCC4)cc23)ccc1N1CCOCC1 (stereo not drawn) [Example A59, N-(3-(3-methyl-4-morpholinophenyl)-1H-indazol-5-yl)-2-(pyrrolidin-1-yl)-2-(thiophen-3-yl)acetamide] | – | ≤ 5 | 5 to 20 | ≤ 5 | ≤ 5 | ≤ 5 | ≤ 5 | ≤ 5 |
| CN1CCC(Oc2ccc(-c3n[nH]c4ccc(NC(=O)N5CCCc6ccccc65)cc34)cc2)CC1 [Example A73, N-(3-(4-((1-methylpiperidin-4-yl)oxy)phenyl)-1H-indazol-5-yl)-3,4-dihydroquinoline-1(2H)-carboxamide] | – | ≤ 5 | 5 to 20 | ≤ 5 | ≤ 5 | ≤ 5 | ≤ 5 | ≤ 5 |
| O=C(Nc1ccc2[nH]nc(-c3ccc(N4CCOCC4)cc3)c2c1)Nc1ccccc1Cl [Example A66, 1-(2-chlorophenyl)-3-(3-(4-morpholinophenyl)-1H-indazol-5-yl)urea] | – | ≤ 5 | 5 to 20 | ≤ 5 | ≤ 5 | 5 to 20 | ≤ 5 | 5 to 20 |
| CN1CCN(Cc2ccc(-c3n[nH]c4ccc(NC(=O)C(c5ccsc5)N5CCCC5)cc34)cc2)CC1 (stereo not drawn) [Example A67, N-(3-(4-((4-methylpiperazin-1-yl)methyl)phenyl)-1H-indazol-5-yl)-2-(pyrrolidin-1-yl)-2-(thiophen-3-yl)acetamide] | – | ≤ 5 | 5 to 20 | ≤ 5 | ≤ 5 | ≤ 5 | ≤ 5 | ≤ 5 |
| CN1CCC(Oc2ccc(-c3n[nH]c4ccc(C(=O)NCC(C)(C)N5CCOCC5)cc34)cc2)CC1 [Example A74, N-(2-methyl-2-morpholinopropyl)-3-(4-((1-methylpiperidin-4-yl)oxy)phenyl)-1H-indazole-5-carboxamide] | – | ≤ 5 | 20 to 50 | ≤ 5 | ≤ 5 | ≤ 5 | ≤ 5 | 5 to 20 |
| O=C(Nc1ccc2[nH]nc(-c3ccc(NC4CCCC4)cc3)c2c1)C(c1ccsc1)N1CCCC1 (stereo not drawn) [Example A70, N-(3-(4-(cyclopentylamino)phenyl)-1H-indazol-5-yl)-2-(pyrrolidin-1-yl)-2-(thiophen-3-yl)acetamide] | – | ≤ 5 | ≤ 5 | ≤ 5 | ≤ 5 | ≤ 5 | ≤ 5 | – |
| C[C@@H](NC(=O)c1ccc2[nH]nc(-c3ccc(N4CCOCC4)cc3)c2c1)c1cccs1 [Example A53, (R)-3-(4-morpholinophenyl)-N-(1-(thiophen-2-yl)ethyl)-1H-indazole-5-carboxamide] | – | ≤ 5 | 5 to 20 | ≤ 5 | ≤ 5 | ≤ 5 | ≤ 5 | ≤ 5 |
| COc1cc(-c2n[nH]c3ccc(NC(=O)C(c4ccsc4)N4CCCC4)cc23)ccc1OC1CCNCC1 (stereo not drawn) [Example A8, N-(3-(3-methoxy-4-(piperidin-4-yloxy)phenyl)-1H-indazol-5-yl)-2-(pyrrolidin-1-yl)-2-(thiophen-3-yl)acetamide] | ≤ 5 | ≤ 5 | – | ≤ 5 | ≤ 5 | ≤ 5 | – | ≤ 5 |
| COc1cc(-c2n[nH]c3ccc(NC(=O)C(c4ccsc4)N4CCCC4)cc23)ccc1OC1CCN(C)CC1 (stereo not drawn) [Example A21, N-(3-(3-methoxy-4-((1-methylpiperidin-4-yl)oxy)phenyl)-1H-indazol-5-yl)-2-(pyrrolidin-1-yl)-2-(thiophen-3-yl)acetamide] | ≤ 5 | ≤ 5 | – | ≤ 5 | ≤ 5 | ≤ 5 | – | ≤ 5 |
| CN1CCOc2cc(-c3n[nH]c4ccc(NC(=O)C(c5ccsc5)N5CCCC5)cc34)ccc21 (stereo not drawn) [Example A17, N-(3-(4-methyl-3,4-dihydro-2H-benzo[b][1,4]oxazin-7-yl)-1H-indazol-5-yl)-2-(pyrrolidin-1-yl)-2-(thiophen-3-yl)acetamide] | ≤ 5 | ≤ 5 | – | ≤ 5 | ≤ 5 | ≤ 5 | – | ≤ 5 |
| O=C(Nc1ccc2[nH]nc(-c3ccc(N4CCOCC4)cc3)c2c1)C1CCCc2ccccc21 (stereo not drawn) [Example A22, N-(3-(4-morpholinophenyl)-1H-indazol-5-yl)-1,2,3,4-tetrahydronaphthalene-1-carboxamide] | 5 to 50 | ≤ 5 | – | ≤ 5 | ≤ 5 | ≤ 5 | – | ≤ 5 |
| CN(C)CCOc1ccc(-c2n[nH]c3ccc(NC(=O)C(c4ccsc4)N4CCCC4)cc23)cc1 (stereo not drawn) [Example A5, N-(3-(4-(2-(dimethylamino)ethoxy)phenyl)-1H-indazol-5-yl)-2-(pyrrolidin-1-yl)-2-(thiophen-3-yl)acetamide] | 5 to 50 | ≤ 5 | – | ≤ 5 | ≤ 5 | ≤ 5 | – | ≤ 5 |
